Assay results: US20210276987A1, “PHARMACEUTICAL AGENTS FOR USE IN SMOKING AND TOBACCO CESSATION” (Washington State University, priority 2018, published 2021)
Where a name gives a salt, the structure may show the parent alone. Read-outs that look alike come from different tables or passages of the source.

Key:
UGT2B10 = molecular target: T1, UGT2B10 (Homo sapiens, UniProt P36537); experiment: biochemical
T1 sequence (P36537 24-528): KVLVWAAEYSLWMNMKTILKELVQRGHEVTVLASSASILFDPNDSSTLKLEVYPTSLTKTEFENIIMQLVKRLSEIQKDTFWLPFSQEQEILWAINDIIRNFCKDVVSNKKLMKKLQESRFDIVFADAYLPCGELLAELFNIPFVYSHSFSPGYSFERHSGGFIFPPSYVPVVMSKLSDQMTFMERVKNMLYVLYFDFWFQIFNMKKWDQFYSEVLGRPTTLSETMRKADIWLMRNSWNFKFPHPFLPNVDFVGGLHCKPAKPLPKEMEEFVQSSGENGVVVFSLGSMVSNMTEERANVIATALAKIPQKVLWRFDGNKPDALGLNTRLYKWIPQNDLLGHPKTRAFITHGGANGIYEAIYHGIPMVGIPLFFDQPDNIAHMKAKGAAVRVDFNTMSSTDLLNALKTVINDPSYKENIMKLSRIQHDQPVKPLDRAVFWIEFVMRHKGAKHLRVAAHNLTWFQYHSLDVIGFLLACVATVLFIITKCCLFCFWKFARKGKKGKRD
Procedure: Initial screening assays were performed as described above for the CYP assays using 1 μM or 10 μM of each of the NAs. The inhibitory effects of each agent against UGT2B10 was performed using the known UGT2B10-specific probe substrate, nicotine, in pooled human liver microsomes. […] Pre-incubations containing 500 μM nicotine and 1 or 10 μM NA were subsequently performed at 37° C. in 50 mM Tris-HCl buffer (pH 7.5, in a final volume of 50 μL) and 10 mM MgCl2 for 5 minutes.

CYP2A6 [1] = molecular target: T2, CYP2A6 (Homo sapiens, UniProt P11509); experiment: biochemical
T2 sequence (P11509 1-494): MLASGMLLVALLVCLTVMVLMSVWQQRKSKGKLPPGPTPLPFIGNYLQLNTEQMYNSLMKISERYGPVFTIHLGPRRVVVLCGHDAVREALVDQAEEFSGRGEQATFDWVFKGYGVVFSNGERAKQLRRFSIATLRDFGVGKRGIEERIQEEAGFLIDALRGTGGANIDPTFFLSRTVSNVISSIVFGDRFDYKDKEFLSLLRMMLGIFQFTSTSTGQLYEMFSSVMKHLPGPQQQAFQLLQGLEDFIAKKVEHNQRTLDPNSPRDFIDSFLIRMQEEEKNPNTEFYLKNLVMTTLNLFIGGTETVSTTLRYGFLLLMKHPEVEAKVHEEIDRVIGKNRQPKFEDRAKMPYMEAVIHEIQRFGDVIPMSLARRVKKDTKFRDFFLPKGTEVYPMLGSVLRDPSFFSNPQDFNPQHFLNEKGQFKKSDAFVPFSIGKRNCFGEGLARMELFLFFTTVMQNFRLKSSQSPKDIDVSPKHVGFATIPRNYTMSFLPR

in vitro = settings: for T1/2 (min) in human liver microsomes / half-life (T1/2) in human liver microsomes: pH 7.4; for half-life at 10 μM: human, microsomes
Procedure: In vitro stability studies. […] Half-lives were calculated using the one-phase exponential decay equation (GraphPad).

CYP2A6 [2] = molecular target: T2, CYP2A6; settings: for IC50: both, human, microsomes, pH 7.4
CYP2D6 = CYP2D6 (Homo sapiens, UniProt P10635); experiment: CYP2D6 inhibition assay, human liver microsomes, dextromethorphan probe (cocktail)
CYP2C8 = molecular target: T3, CYP2C8 (Homo sapiens, UniProt P10632)
T3 sequence (P10632 1-490): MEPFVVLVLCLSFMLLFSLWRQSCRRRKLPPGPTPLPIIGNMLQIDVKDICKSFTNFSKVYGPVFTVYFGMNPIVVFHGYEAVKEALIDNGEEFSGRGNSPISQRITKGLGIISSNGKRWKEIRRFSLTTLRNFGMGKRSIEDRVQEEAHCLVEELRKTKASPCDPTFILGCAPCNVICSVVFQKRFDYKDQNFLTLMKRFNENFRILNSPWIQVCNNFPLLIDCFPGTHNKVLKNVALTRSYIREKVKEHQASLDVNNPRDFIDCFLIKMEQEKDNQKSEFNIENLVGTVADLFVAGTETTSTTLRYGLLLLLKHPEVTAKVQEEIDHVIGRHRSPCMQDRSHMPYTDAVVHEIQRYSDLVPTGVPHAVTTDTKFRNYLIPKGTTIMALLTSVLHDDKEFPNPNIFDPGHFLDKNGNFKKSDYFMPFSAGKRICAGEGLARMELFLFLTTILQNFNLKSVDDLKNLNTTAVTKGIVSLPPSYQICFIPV

CYP2B6 = molecular target: T4, CYP2B6 (Homo sapiens, UniProt P20813)
T4 sequence (P20813 1-491): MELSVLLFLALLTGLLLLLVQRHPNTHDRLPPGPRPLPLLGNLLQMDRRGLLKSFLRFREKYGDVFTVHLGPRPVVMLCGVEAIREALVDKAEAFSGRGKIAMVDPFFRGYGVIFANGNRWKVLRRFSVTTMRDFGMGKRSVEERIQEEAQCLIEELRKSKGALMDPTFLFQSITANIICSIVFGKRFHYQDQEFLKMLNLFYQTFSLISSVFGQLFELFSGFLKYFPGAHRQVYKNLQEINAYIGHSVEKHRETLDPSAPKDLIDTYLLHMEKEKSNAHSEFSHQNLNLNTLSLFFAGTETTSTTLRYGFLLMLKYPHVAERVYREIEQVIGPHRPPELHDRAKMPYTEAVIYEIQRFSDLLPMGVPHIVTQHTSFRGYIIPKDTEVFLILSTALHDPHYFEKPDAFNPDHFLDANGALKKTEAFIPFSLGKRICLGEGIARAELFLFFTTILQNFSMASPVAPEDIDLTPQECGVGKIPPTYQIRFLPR

CYP1A2 [3] = molecular target: T5, CYP1A2 (Homo sapiens, UniProt P05177); settings: both, microsomes, pH 7.4
T5 sequence (P05177 1-516): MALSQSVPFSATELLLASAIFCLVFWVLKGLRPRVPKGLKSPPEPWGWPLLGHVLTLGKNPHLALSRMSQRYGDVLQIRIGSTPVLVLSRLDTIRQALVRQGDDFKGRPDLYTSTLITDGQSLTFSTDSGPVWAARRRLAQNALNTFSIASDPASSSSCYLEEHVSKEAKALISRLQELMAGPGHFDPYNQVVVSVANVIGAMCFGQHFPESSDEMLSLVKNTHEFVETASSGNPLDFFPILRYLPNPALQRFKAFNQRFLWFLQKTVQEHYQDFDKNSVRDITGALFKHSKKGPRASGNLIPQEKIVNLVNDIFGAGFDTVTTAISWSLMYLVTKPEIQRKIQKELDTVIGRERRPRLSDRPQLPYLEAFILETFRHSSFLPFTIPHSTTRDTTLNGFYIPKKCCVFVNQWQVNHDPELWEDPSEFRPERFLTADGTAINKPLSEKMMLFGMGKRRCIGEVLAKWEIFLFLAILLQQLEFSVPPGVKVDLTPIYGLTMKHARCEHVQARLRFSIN

CYP2C19 = CYP2C19 (Homo sapiens, UniProt P33261); experiment: CYP2C19 inhibition assay, human liver microsomes, omeprazole probe (cocktail)
[4] = system: CYPs 1A2, 2B6, 2C8, 2C9, 2C19, 2D6, 2E1 and 3A4
CYP2E1 = CYP2E1 (Homo sapiens, UniProt P05181)
CYP2C9 = CYP2C9 (Homo sapiens, UniProt P11712); experiment: CYP2C9 inhibition assay, human liver microsomes, diclofenac probe (cocktail)
CYP2A6 [5] = molecular target: T2, CYP2A6; experiment: in vitro; settings: both, microsomes, pH 7.4, IC50 against CYP2A6 (μM)
CYP1A2 [6] = molecular target: T5, CYP1A2; experiment: CYP1A2 inhibition assay, human liver microsomes, phenacetin probe (cocktail); settings: Table 8, thiophene and furan analogues
[7] = IC50 against UGT2B10 (μM), Table 9, pooled human liver microsomes, nicotine 500 μM
[8] = IC50 against CYP2A6 (μM), Table 5, alkyne linker agents, pooled human liver microsomes, coumarin […]
[9] = pH 7.4, half-life (T1/2) in human liver microsomes
[10] = pH 7.4, T1/2 (min) in human liver microsomes
[11] = IC50 against CYP2A6, human liver microsomes
[12] = Table 8, thiophene and furan analogues

Sequence of CYP2D6 (P10635 whole entry): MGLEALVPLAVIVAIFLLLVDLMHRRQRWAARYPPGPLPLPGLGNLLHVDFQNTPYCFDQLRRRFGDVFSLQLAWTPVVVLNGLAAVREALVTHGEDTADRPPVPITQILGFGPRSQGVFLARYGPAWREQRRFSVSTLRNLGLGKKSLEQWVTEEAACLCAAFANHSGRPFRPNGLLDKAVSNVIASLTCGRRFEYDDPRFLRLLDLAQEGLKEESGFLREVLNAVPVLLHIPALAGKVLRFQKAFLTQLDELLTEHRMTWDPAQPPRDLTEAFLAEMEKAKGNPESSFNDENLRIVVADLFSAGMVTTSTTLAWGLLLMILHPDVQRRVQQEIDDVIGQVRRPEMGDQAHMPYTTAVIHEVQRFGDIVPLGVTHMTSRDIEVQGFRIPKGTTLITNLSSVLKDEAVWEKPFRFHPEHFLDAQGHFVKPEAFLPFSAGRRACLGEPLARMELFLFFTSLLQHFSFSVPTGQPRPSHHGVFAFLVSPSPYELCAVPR
Sequence of CYP2E1 (P05181 whole entry): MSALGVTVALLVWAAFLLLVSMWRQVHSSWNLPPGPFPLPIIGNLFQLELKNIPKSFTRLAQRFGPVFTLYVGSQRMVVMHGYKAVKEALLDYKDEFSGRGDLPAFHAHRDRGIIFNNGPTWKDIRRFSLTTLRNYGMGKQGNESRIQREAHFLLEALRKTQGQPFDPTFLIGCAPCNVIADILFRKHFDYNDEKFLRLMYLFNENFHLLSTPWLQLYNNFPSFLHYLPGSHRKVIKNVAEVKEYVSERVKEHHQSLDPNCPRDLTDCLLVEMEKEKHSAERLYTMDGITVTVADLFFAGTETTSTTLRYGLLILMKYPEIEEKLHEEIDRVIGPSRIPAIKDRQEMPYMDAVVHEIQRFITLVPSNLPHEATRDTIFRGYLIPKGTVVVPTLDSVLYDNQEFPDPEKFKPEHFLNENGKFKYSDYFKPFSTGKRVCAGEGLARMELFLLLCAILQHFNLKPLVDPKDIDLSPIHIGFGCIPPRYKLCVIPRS
Sequence of CYP2C9 (P11712 whole entry): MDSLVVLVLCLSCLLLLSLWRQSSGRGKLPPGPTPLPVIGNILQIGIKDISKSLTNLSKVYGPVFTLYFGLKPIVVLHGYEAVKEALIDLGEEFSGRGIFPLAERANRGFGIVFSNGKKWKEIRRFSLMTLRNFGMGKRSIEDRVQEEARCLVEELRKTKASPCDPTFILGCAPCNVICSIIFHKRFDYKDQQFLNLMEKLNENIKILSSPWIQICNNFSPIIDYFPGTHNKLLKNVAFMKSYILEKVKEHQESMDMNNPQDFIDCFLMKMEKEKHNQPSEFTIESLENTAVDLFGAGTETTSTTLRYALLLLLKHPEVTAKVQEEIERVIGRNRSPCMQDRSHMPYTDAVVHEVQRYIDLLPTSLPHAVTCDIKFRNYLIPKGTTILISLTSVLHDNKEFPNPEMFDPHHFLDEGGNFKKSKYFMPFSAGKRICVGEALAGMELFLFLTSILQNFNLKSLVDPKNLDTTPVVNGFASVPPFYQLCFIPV
Sequence of CYP2C19 (P33261 whole entry): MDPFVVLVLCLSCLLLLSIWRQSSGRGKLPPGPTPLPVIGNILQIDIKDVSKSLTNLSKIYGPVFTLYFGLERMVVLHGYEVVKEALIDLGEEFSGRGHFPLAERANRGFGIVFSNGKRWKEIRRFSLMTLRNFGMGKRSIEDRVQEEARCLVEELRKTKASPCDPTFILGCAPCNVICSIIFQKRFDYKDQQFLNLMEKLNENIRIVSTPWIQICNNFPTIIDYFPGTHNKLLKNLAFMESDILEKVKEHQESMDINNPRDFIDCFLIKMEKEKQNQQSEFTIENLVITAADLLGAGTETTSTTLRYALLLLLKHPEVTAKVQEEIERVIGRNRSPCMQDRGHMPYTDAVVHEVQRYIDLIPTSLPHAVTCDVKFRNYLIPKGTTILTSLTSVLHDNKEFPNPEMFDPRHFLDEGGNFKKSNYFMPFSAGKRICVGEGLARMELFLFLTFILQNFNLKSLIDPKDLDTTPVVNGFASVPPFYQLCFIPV

## NCC#Cc1cncc2ccccc12 [Compound A, 3-(isoquinolin-4-yl)prop-2-yn-1-amine Dihydrochloride]
UGT2B10; [7]
  IC50: 770 µM
CYP2A6 [1]; [8]
  IC50: > 10 µM

## NCc1ccc(-c2cnccc2-c2cncnc2)s1 [Compound AL, (5-(4-(Pyrimidin-5-yl)pyridin-3-yl)thiophene-2-yl)methanamine Trihydrochloride]
In vitro; 10 μM
  T1/2 (min) in human liver microsomes: >120 min
In vitro; [9]
  half-life at 10 μM: > 90 min
CYP2A6 [2]
  IC50: 1.2 µM

## NCc1ccc(-c2cnccc2-c2cccnc2)o1 [Compound AG, (5-([3,4′-Bipyridin]-3′-yl)furan-2-yl)methanamine Trihydrochloride]
In vitro; 10 μM
  T1/2 (min) in human liver microsomes: >120 min
In vitro; [9]
  half-life at 10 μM: > 90 min
CYP2A6 [2]
  IC50: 0.38 µM

## CCc1ccncc1C#CCN [Compound H, 3-(4-ethylpyridin-3-yl)prop-2-yn-1-amine]
UGT2B10; IC50 against UGT2B10
  IC50: > 1000 µM
UGT2B10; IC50 against UGT2B10 (μM)
  IC50: > 1000 µM
In vitro
  T1/2 (min) in human liver microsomes: 9.8 min
  half-life (T1/2) in human liver microsomes: less than 25 minutes
CYP2A6 [1]; IC50 against CYP2A6
  IC50: < 1 µM
CYP2A6 [2]
  IC50: 0.83 µM

## NCC#Cc1cnccc1Cl [Compound L, 3-(4-chloropyridin-3-yl)prop-2-yn-1-amine Dihydrochloride]
CYP2D6; Table 6
  IC50 ratio CYP2D6/CYP2A6: 29
CYP2C8; Table 6
  IC50 ratio CYP2C8/CYP2A6: >192
In vitro; [10]
  half-life at 10 μM: 28 min
CYP2B6; Table 6
  IC50 ratio CYP2B6/CYP2A6: 24
CYP1A2 [3]
  IC50 ratio CYP1A2/CYP2A6: 33
CYP2A6 [1]; [8]
  IC50: 0.13 µM
CYP2A6 [1]; [11]
  IC50: < 1 µM
CYP2C19; Table 6
  IC50 ratio CYP2C19/CYP2A6: 61
[4]
  IC50 ratio CYPhepatic/CYP2A6 against all hepatic CYP enzymes tested: > 25
CYP2E1; Table 6
  IC50 ratio CYP2E1/CYP2A6: 10
CYP2A6 [2]; CYP2A6
  IC50 fold lower than that observed for the reference agent: 1.2 fold
CYP2C9; Table 6
  IC50 ratio CYP2C9/CYP2A6: >385

## Cc1ccncc1C#CCN [Compound C, 3-(4-methylpyridin-3-yl)prop-2-yn-1-amine]
UGT2B10; IC50 against UGT2B10
  IC50: < 60 µM
UGT2B10; IC50 against UGT2B10 (μM)
  IC50: 58 µM
In vitro
  T1/2 (min) in human liver microsomes: 8.4 min
  half-life (T1/2) in human liver microsomes: less than 25 minutes
CYP2A6 [1]; IC50 against CYP2A6
  IC50: < 1 µM
CYP2A6 [2]
  IC50: 0.055 µM

## Cc1cncc(C#CCN)c1 [Compound D, 3-(5-methylpyridin-3-yl)prop-2-yn-1-amine]
UGT2B10; IC50 against UGT2B10
  IC50: > 1000 µM
UGT2B10; IC50 against UGT2B10 (μM)
  IC50: > 1000 µM
CYP2A6 [5]
  IC50: 10 µM

## NCc1ccc(-c2cnccc2Cl)s1 [Compound AB, (5-(4-chloropyridin-3-yl)thiophene-2-yl)methanamine Dihydrochloride]
CYP2D6; [12]
  IC50 ratio CYP2D6/CYP2A6: 71
CYP2C8; [12]
  IC50 ratio CYP2C8/CYP2A6: 227
CYP1A2 [6]
  IC50 ratio CYP1A2/CYP2A6: 17
In vitro; [10]
  half-life at 10 μM: 11 min
In vitro; [9]
  half-life at 10 μM: < 25 min
CYP2B6; [12]
  IC50 ratio CYP2B6/CYP2A6: 7.4
CYP2A6 [1]; IC50 against CYP2A6 (μM), Table 7, thiophene and furan nicotine analogues, pooled human liver microsomes, coumarin
  IC50: 0.11 µM
CYP2C19; [12]
  IC50 ratio CYP2C19/CYP2A6: 6.8
CYP2E1; [12]
  IC50 ratio CYP2E1/CYP2A6: 47
CYP2C9; [12]
  IC50 ratio CYP2C9/CYP2A6: 182

## NCc1ccc(-c2cnccc2-c2ccncc2)s1 [Compound AJ, (5-([4,4′-Bipyridin]-3′-yl)thiophene-2-yl)methanamine Trihydrochloride]
In vitro; 10 μM
  T1/2 (min) in human liver microsomes: 32 min
CYP2A6 [2]
  IC50: 0.33 µM

## NCC#Cc1cnc2ccccc2c1 [Compound B, 3-(quinolin-3-yl)prop-2-yn-1-amine]
UGT2B10; [7]
  IC50: > 1000 µM
UGT2B10; IC50 against UGT2B10, little to no inhibition
  IC50: > 1000 µM
CYP2A6 [1]; [8]
  IC50: > 10 µM

## Cc1ncccc1C#CCN [Compound F, 3-(2-methylpyridin-3-yl)prop-2-yn-1-amine]
UGT2B10; [7]
  IC50: 286 µM
CYP2A6 [1]; [8]
  IC50: > 10 µM

## NCC#Cc1cnccc1-c1cncnc1 [Compound Q, 3-(4-(Pyrimidin-5-yl)pyridin-3-yl)prop-2-yn-1-amine Trihydrochloride]
In vitro; 10 μM
  T1/2 (min) in human liver microsomes: >120 min
In vitro; [9]
  half-life at 10 μM: > 90 min
CYP2A6 [1]; [11]
  IC50: < 10 µM
CYP2A6 [2]
  IC50: 2.7 µM

## NCc1ccc(-c2cnccc2-c2cncnc2)o1 [Compound AK, (5-(4-(Pyrimidin-5-yl)pyridin-3-yl)furan-2-yl)methanamine Trihydrochloride]
In vitro; 10 μM
  T1/2 (min) in human liver microsomes: >120 min
In vitro; [9]
  half-life at 10 μM: > 90 min
CYP2A6 [2]
  IC50: 1.3 µM

## NCC#Cc1cnccc1-c1ccncc1 [Compound P, 3-([4,4′-Bipyridin]-3′-yl)prop-2-yn-1-amine Trihydrochloride]
In vitro; 10 μM
  T1/2 (min) in human liver microsomes: 36 min
CYP2A6 [1]; [11]
  IC50: < 10 µM
CYP2A6 [2]
  IC50: 3.6 µM

## NCC#Cc1cnccc1-c1ccco1 [Compound M, 3-(4-Furan-2-yl-pyridin-3-yl)-prop-2-ynylamine Dihydrochloride]
CYP2A6 [1]; [11]
  IC50: < 1 µM
CYP2A6 [2]
  IC50: 0.56 µM
